According to patent US8492388B2 (priority 2008, dated 2013):
Where two headings read alike, the source gives them in different places.

Test: Measurement of logP values by HPLC on reversed phase columns (EEC directive 79/831 Annex V.A8)
Settings: for logp: HPLC reversed phase, pH 2,7, 0.1% formic acid in water / acetonitrile gradient

SMILES	chromatographic logP	logp	chromatographic logP (pH 2.7)
COC(=O)c1cccc(CCl)c1 [3-(chloromethyl)benzoate, methyl 3-(chloromethyl)benzoate]	2.64		
COCc1cccc(C(=O)O)c1 [3-(methoxymethyl)benzoic acid]	1.33		
Cn1nnnc1C(=O)c1cccc(OC(F)(F)F)c1 [(1-methyl-1H-tetrazol-5-yl)[3-(trifluoromethoxy)phenyl]methanone]	2.96		
Cn1nnnc1C(=NOCc1cccc(N)n1)c1cccc(OC(F)(F)F)c1 [Example 5]		1.69	
C=CCCOC(=O)Nc1cccc(CON=C(c2cccc(OC(F)(F)F)c2)c2nnnn2C)n1 [Example 8]		4.2	
C=CCCOC(=O)Nc1nc(CON=C(c2cccc(SC)c2)c2nnnn2C)cs1 [Example 21]		3.64	
CN(C)c1cccc(C(=NOCc2cccc(N)n2)c2nnnn2C)c1 [Example 22, 6-{[({[3-(dimethylamino)phenyl](1-methyl-1H-tetrazol-5-yl)methylene}amino)oxy]methyl}pyridin-2-amine]			1.19
C#CCCOC(=O)Nc1cccc(CON=C(c2cccc(N(C)C)c2)c2nnnn2C)n1 [Example 23]		3.21	
C=CCCOC(=O)Nc1cccc(CON=C(c2cccc(N(C)C)c2)c2nnnn2C)n1 [Example 24]		3.64	
CN(C)c1cccc(C(=NOCc2cccc(NC(=O)C(F)(F)Oc3ccccc3)n2)c2nnnn2C)c1 [Example 30, N-(6-{[({[3-(dimethylamino)phenyl](1-methyl-1H-tetrazol-5-yl)methylene}amino)oxy]methyl}pyridin-2-yl)-2,2-difluoro-2-phenoxyacetamide]	4.14		4.14
CON(C)C(=O)Nc1cccc(CON=C(c2cccc(N(C)C)c2)c2nnnn2C)n1 [Example 31]		2.71	
COCc1cccc(C(=NOCc2cccc(NC(=O)OC(C)(C)C)n2)c2nnnn2C)c1 [Example 32, tert-butyl (6-{[({[3-(methoxymethyl)phenyl](1-methyl-1H-tetrazol-5-yl)methylene}amino)oxy]methyl}pyridin-2-yl)carbamate]	3.71		3.71
CC#CCOC(=O)Nc1cccc(CON=C(c2cccc(COC)c2)c2nnnn2C)n1 [Example 33]		3.21	
CCCCCOC(=O)Nc1cccc(CON=C(c2cccc(COC)c2)c2nnnn2C)n1 [Example 38]		4.18	
Cn1nnnc1C(=NOCc1csc(N)n1)c1cccc(OC(F)(F)F)c1 [Example 46, 4-{[({(1-methyl-1H-tetrazol-5-yl)[3-(trifluoromethoxy)phenyl]methylene}amino)oxy]methyl}-1,3-thiazol-2-amine]	2.1		2.1
Cn1nnnc1C(=NOCc1csc(NC(=O)COc2ccccc2)n1)c1cccc(OC(F)(F)F)c1 [Example 53, N-(4-{[({(1-methyl-1H-tetrazol-5-yl)[3-(trifluoromethoxy)phenyl]methylene}amino)oxy]methyl}-1,3-thiazol-2-yl)-2-phenoxyacetamide]	3.99		3.99
Cn1nnnc1C(=NO)c1cccc(OC(F)(F)F)c1 [N-hydroxy-1-(1-methyl-1H-tetrazol-5-yl)-1-[3-(trifluoromethoxy)phenyl]methanimine]	2.37		
COCc1cccc(C(=NO)c2nnnn2C)c1 [N-hydroxy-1-[3-(methoxymethyl)phenyl]-1-(1-methyl-1H-tetrazol-5-yl)methanimine]	1.54		
COCc1cccc(C(=O)N(C)OC)c1 [N-methoxy-3-(methoxymethyl)-N-methylbenzamide]	1.43		
CON(C)C(=O)c1cccc(OC(F)(F)F)c1 [N-methoxy-N-methyl-3-(trifluoromethoxy)benzamide]	2.41		
COCc1cccc(C(=O)c2nnnn2C)c1 [[3-(methoxymethyl)phenyl](1-methyl-1H-tetrazol-5-yl)methanone]	2.01		
